US20230374067A1, “NOVEL PEPTOIDS AND USE THEREOF FOR PREVENTING OR TREATING CHRONIC PAIN” (Université Clermont Auvergne, priority 2020, published 2023)
Square brackets hold non-standard residues; d marks the D form. Peptide text beside a SMILES is read from it. * marks the point of attachment. Gly(N-CH2CH2OH) = O=C(O)CNCCO; Nleu = CC(C)CNCC(=O)O; Bz = O=C(c1ccccc1)*

Experiments:
[1] = test system: OIPN mice (oxaliplatin-induced neuropathy model mice); test: Oxaliplatin-induced acute neuropathy in mice, paw immersion test (cold hypersensitivity); type: in vivo
Protocol: (§1) Immersion test: The tail or paw was immersed in a water bath set at 10° C. or 46° C. until shrinkage was observed (cut-off time: 30 s). The average of two separate determinations of withdrawal latency was calculated (Janssen, Niemegeers & Dony, 1963).
Oxaliplatin-induced acute neuropathy in mice: Mice were injected intraperitoneally (i.p.) with 6 mg/kg oxaliplatin dissolved in 5% glucose directly after the first behavioral assessment. At 90 h after drug administration, corresponding to the time required to reach peak hyperalgesia (Descoeur et al., 2011), a second assessment of cold sensitivity and mechanical sensitivity was performed.

[2] = test system: PTX rats; test: Paclitaxel-induced neuropathy in rats (mechanical thresholds, paw immersion); type: in vivo; details: rat model of paclitaxel-induced neuropathy, i.t., 0.2, 1 or 5 μg
Protocol: as §1
Paw pressure test in rats: Rats were subjected to the paw pressure test previously described by Randall and Selitto (1957). Nociceptive thresholds, expressed in grams, were measured with a Ugo Basile analgesic meter (Apelex, probe tip diameter 1 mm, weight 30 g) by applying increasing pressure to the right hind paw of the rats until a pain sign (vocalization threshold) was obtained (cut-off was 750 g). Before the treatments, the rats were habituated to the test by handling them without subjecting them to paw pressure. Then, after obtaining two consecutive stable vocalization threshold values, the treatment effects were evaluated after 15, 30, 45, 60, 90, and 120 min. Results are expressed as vocalization thresholds, in grams. […] Data were analyzed by a 2-way ANOVA followed by a Bonferroni test, when the time course of the effects was studied. A one-way ANOVA followed by a Student Newman-Keuls test was used to analyze the effect of the different treatments determined by the CSAs. The level of statistical significance was set at p<0.05. […]

[3] = test system: mice; test: Rotarod test (locomotor activity); type: in vivo; details: administered subcutaneously (2.5, 5, or 10 mg/kg, s.c.)
Protocol: Rotarod Test: For the Rotarod test (Bioseb), the animals were first habituated to remain on the stationary cylinder for 10 min before switching to another 10 min with a rotational speed of 4 rpm. The animals were given the drug immediately after training and the test was performed 30 min later. The test consisted of measuring the latency to fall of the animals as the rotation increased from 4 to 40 rpm linearly over 5 min. The average of the two closest values over 3 trials was calculated.

[4] = molecular target: T1, interaction between HCN and the TRIP8b tail (Homo sapiens, UniProt Q8IYB4); test: Fluorescence polarization assay, disruption of TRIP8b-HCN interaction; type: binding; details: compared with NUCC5953
T1 sequence (Q8IYB4 265-626 limits assumed): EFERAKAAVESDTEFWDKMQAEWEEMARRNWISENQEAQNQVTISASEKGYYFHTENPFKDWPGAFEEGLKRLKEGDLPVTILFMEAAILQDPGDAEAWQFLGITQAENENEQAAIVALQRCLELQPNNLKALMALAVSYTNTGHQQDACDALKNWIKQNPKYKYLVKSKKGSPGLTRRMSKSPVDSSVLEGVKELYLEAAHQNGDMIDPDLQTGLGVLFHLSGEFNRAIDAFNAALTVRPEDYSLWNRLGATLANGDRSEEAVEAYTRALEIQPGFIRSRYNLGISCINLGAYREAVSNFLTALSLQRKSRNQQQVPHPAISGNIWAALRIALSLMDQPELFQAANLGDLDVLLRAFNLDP
Text: Fluorescence polarization assay: a fluorescence polarization (FP) based assay was used to identify compounds capable of disrupting the interaction between HCN and the TRIP8b tail, as published (Han et al., 2015).

[5] = test system: neuropathic rats; test: Spinal nerve ligation induced neuropathy in rats, paw immersion test; type: in vivo; details: neuropathy induced by traumatic nerve injury, intrathecal, 5 μg
Protocol: as §1
Spinal nerve ligation induced neuropathy in rats: According to the procedure of Kim and Chung (1992), rats were placed in the […] position and anesthetized with 10 mg/kg xylazine and 75 mg/kg ketamine (i.p). The fur on the left side of the spine was then shaved to expose the skin. The skin was cut parallel to the spine and the paravertebral muscles were separated. The L5 transverse apophysis was removed until the L5 spinal nerve was exposed. The L5 nerve was isolated and ligated with silk thread. Finally, the muscle and skin incisions were sutured and the wound was disinfected with iodophor and 75% ethyl alcohol. In the sham group, the rats underwent the same surgical procedure without the nerve ligation.

Row | Structure (SMILES) | analgesic effect ([1]; mouse, in vivo) | also measured
1 | CC(C)C[C@H](NC(=O)CCN(CCO)C(=O)CN(CCO)C(=O)CN(CC(C)C)C(=O)c1ccc([N+](=O)[O-])cc1)C(=O)O [LF108] | demonstrated an analgesic effect | 
2 | Cc1ccc(C(=O)N(CC(=O)N(CCO)CC(=O)N(CCO)CCC(=O)N[C@@H](CC(C)C)C(=O)O)CC(C)C)cc1 [LF126] | demonstrated an analgesic effect | 
3 | CC(C)C[C@H](NC(=O)CCN(CC(N)=O)C(=O)CN(CCO)C(=O)CN(CC(C)C)C(=O)c1ccccc1)C(=O)O [LF176] | demonstrated an analgesic effect | 
4 | CC(C)C[C@H](NC(=O)CCN(CCO)C(=O)CN(CCO)C(=O)CN(CC(C)C)C(=O)c1ccc(C(F)(F)F)cc1)C(=O)O [LF188] | demonstrated an analgesic effect | 
5 | CCCCN(CC(=O)N(CCO)CC(=O)N(CCO)CCC(=O)N[C@@H](CC(C)C)C(=O)O)C(=O)c1ccccc1 [LF222] | demonstrated an analgesic effect | 
6 | CC(C)C[C@H](NC(=O)CCN(CCO)C(=O)CN(CCO)C(=O)CN(Cc1ccccc1)C(=O)C(C)C)C(=O)O [LF239] | demonstrated an analgesic effect | 
7 | CC(C)C[C@H](NC(=O)CCN(CCO)C(=O)CN(CCO)C(=O)CN(CC(C)C)C(=O)c1ccc(F)cc1)C(=O)O [LF261] | demonstrated an analgesic effect | 
8 | CC(C)C[C@H](NC(=O)CCN(CCO)C(=O)CN(CCO)C(=O)CN(C(=O)c1ccccc1)C(C)C)C(=O)O [LF295] | demonstrated an analgesic effect | 
9 | CC(C)C[C@H](NC(=O)CCN(CCO)C(=O)CN(CCO)C(=O)CN(CC(C)(C)C)C(=O)c1ccccc1)C(=O)O [LF306] | demonstrated an analgesic effect | 
10 | CC(C)C[C@H](NC(=O)CCN(CCO)C(=O)CN(CCN)C(=O)CN(CC(C)C)C(=O)c1ccccc1)C(=O)O [LF329] | demonstrated an analgesic effect | 
11 | CC(=O)N(CCO)CC(=O)N(CCO)CCC(=O)N[C@@H](CC(C)C)C(=O)O [LF369] |  | analgesic effect ([1]; OIPN mice, 5 μg, i.t.): demonstrated an analgesic effect
12 | Cc1cccc(C(=O)N(CC(=O)N(CCO)CC(=O)N(CCO)CCC(=O)N[C@@H](CC(C)C)C(=O)O)CC(C)C)c1 [LF400] | demonstrated an analgesic effect | 
13 | CC(C)C[C@H](NC(=O)CCN(CCO)C(=O)CN(CCO)C(=O)CN(Cc1ccccc1)C(=O)c1ccccc1)C(=O)O [MP208] | demonstrated an analgesic effect | 
14 | CC(C)C[C@H](NC(=O)CCN(CCO)C(=O)CN(CCO)C(=O)CN(CC(C)C)C(=O)Cc1ccccc1)C(=O)O [MP341] |  | analgesic effect ([1]; OIPN mice, 10 mg/kg, s.c.): demonstrated an analgesic effect
15 | CC(C)C[C@H](NC(=O)CCN(CCCO)C(=O)CN(CCO)C(=O)CN(CC(C)C)C(=O)c1ccccc1)C(=O)O [MP354] |  | analgesic effect ([1]; OIPN mice, 10 mg/kg, s.c.): demonstrated an analgesic effect
16 | CC(C)C[C@H](NC(=O)CCN(CCO)C(=O)CN(CCCO)C(=O)CN(CC(C)C)C(=O)c1ccccc1)C(=O)O [MP376] |  | analgesic effect ([1]; OIPN mice, 10 mg/kg, s.c.): demonstrated an analgesic effect
17 | CC(C)C[C@H](NC(=O)CN(CCO)C(=O)CN(CCO)C(=O)CN(CC(C)C)C(=O)c1ccccc1)C(=O)O [MP405] (Bz-[Nleu][Gly(N-CH2CH2OH)][Gly(N-CH2CH2OH)]L-OH) | demonstrated an analgesic effect | 
18 | CC(C)C[C@H](NC(=O)CCN(CCO)C(=O)CN(CCO)C(=O)CN(CC(C)C)C(=O)c1ccccc1)C(=O)O [YC55] |  | dose-dependent analgesic effect [2]: dose-dependent analgesic effect; alteration in locomotor activity [3]: No alteration in locomotor activity; potency in disrupting the TRIP8b-HCN interaction [4]: equal potency to NUCC5953; antihyperalgesic effect [5]: antihyperalgesic effect; dose-dependent analgesic effect / reversal of oxaliplatin-induced acute cold hypersensitivity ([1]; OIPN mice, i.t., 0.2, 1, 5 μg/mouse): dose-dependent analgesic effect; dose-dependent analgesic effect ([1]; OIPN mice, s.c., 2.5, 5 or 10 mg/kg): dose-dependent analgesic effect
